In patent US8691864B2, “Agents useful for reducing amyloid precursor protein and treating dementia and methods of use thereof” (priority 2000, dated 2014):

Tested on: APP-mRNA 5′UTR
Assay: CAT reporter assay with βAPP-mRNA 5′UTR in transfected U373 MG cells
Format: cell-based
Procedure: One day prior to transfection, U373 cells were plated onto 100 mm dishes at a density of 3×10^5 cells. On the day of transfection, the cells were given 5 ml of fresh media containing 10% FBS, 2 mM glutamine in DMEM. The cells were transfected using a calcium phosphate precipitation method, as per the manufacturer's protocol and described previously (Rogers et al., 1999). Briefly, for each plate, three μg of DNA (5′UTR APP-PSV2-CAT or PSV2-CAT vector) were placed in a final volume of […] of 250 mM CaCl2. The chloramphenicol acetyl transferase (CAT) gene was used as a reporter gene. The DNA solution was slowly pipetted into an aerated, equivalent volume of 2×HeBS, pH 7.05. The resulting precipitate was allowed to stand 10-20 min at RT before its addition to the cells. After 18 h, the medium was changed and the transfected cells were left for two days before drug treatment.
The cell lysates from transfected U373 cells treated with phenserine were analyzed for their CAT activity using a colorimetric enzyme immunoassay (Boehringer Mannheim, Indianapolis, Ind.). Briefly, 50 μg of protein (an amount previously found to lie within the linear range of the assay) were placed onto anti-CAT coated microtiter plate modules and allowed to bind for 1 h at 37° C. The plates were washed thoroughly after each step. Next, a digoxigenin-labeled anti-CAT antibody was added to the samples and incubated for 1 h at 37° C. A subsequent antibody, anti-digoxigenin conjugated to peroxidase, was placed in the wells for another hour under similar conditions. Finally peroxidase substrate, ABTS, was added to each well and the absorbance of each sample was measured at a wavelength of 405 nm.
The plasmid PSV2-APP-CatD was provided by Dr. Rogers (1999). […]
Quantitation of the fold stimulus of CAT gene activity conferred by the 5′ UTR βAPP-mRNA was measured. ELISA readings of CAT expression were measured at 405 nm. […] In other assays where the time of treatment was extended to 48 hours, only a 2-fold decrease in CAT reporter mRNA was detected with phenserine treatment.

Compound: CN1CC[C@@]2(C)c3cc(OC(=O)Nc4ccccc4)ccc3N(C)[C@@H]12 [(−)-phenserine]
- CAT activity in pSV2 CAT (parental vector) transfected cells (control vector, all time points): no inhibition
- decrease of CAT gene activity conferred by the 5′ UTR βAPP-mRNA (pSV2 (APP) CAT transfected U373, 50 μM, 1 hour): 4 fold
- decrease in CAT activity (pSV2 (APP) CAT transfected U373, treatment extended to 48 hours): 2 fold
